Laboratory results reported in patent publication US10759836B2, “Cancer vaccine compositions and methods of use thereof” (UNIVERSITY OF WASHINGTON, priority 2014, dated 2020).
Entries after “also recorded” stand apart in the source; their conditions may differ.

Key:
[1] = tested on: colon tumor burden in AOM mice (Azoxymethane + FVB); assay: AOM mouse model: colon tumor count after peptide vaccination; type: in vivo; conditions: for effect on colon tumor burden (tumor count): AOM treated FVB mice, vs control group (CFA/IFA; PBS for IGF1R, PRL3, RCAS1); for peptide efficacy, Azoxymethane + FVB (Induced): summary table, Yes/No
Procedure: AOM mouse in-vivo experiments. At 6 weeks of age, FVB mice were immunized in CFA/IFA, PBS, and vaccine groups. Each group received subcutaneous injections (100 ul PBS, 50 ul CFA with 50 ul PBS, 50 ug per peptide with 50 ul CFA) once every 10-14 days for a total of three doses and a booster was given every 4-5 weeks after the third vaccine. See Table 7 for peptides included in vaccine compositions. CFA was replaced with IFA after the first vaccine. Seven days after the third vaccine, mice were injected with Azoxymethane (AOM) at 10 mg/kg, twice weekly for 6 weeks. At 26 weeks of age, all mice were sacrificed and tumors in the colon were counted.

[2] = tested on: small bowel tumor burden in APCmin mice; assay: APCmin survival study: small bowel tumor count at sacrifice; type: in vivo; conditions: boosters every 4-5 weeks, vs CFA/IFA
Procedure: At 4-6 weeks of age, mice were immunized with CFA/IFA, PBS, and vaccine groups. Each group received subcutaneous injections (100 ul PBS, 50 ul CFA with 50 ul PBS, 50 ug per peptide with 50 ul CFA) once every 7-10 days for a total of three doses and a booster vaccine was given every 4-5 weeks after the third vaccine. See Table 6 for peptides included in vaccine compositions. CFA was replaced with IFA after the first vaccine. […] At sacrifice, small intestines were collected and small bowel tumors counted.

[3] = tested on: MC-38 cells (murine adenocarcinoma); assay: MC-38 tumor implant model: tumor volume after peptide vaccination; type: in vivo, C57Bl/6 mice; conditions: for effect on tumor volume: MC-38 tumor implant in C57Bl/6 mice, vs CFA/IFA; for peptide efficacy, MC-38 + B6 (Tumor Implant): summary table, Yes/No
Procedure: MC-38 tumor implant in-vivo experiments. At 6 weeks of age, mice were immunized in CFA/IFA, PBS, and vaccine groups. Each group received subcutaneous injections (100 ul PBS, 50 ul CFA with 50 ul PBS, 50 ug per peptide with 50 ul CFA) once every 10-14 days for a total of three doses. See Table 9 for peptides included in vaccine compositions. CFA was replaced with IFA for the second and third vaccines. Two weeks after the final vaccine, we subcutaneously implanted 4×10^4 MC-38 cells (murine adenocarcinoma), and measured tumor growth with Vernier calipers 2-3 times per week. Tumor volume was calculated as length×width×height×π/6, which is the standard volume calculation of an ellipsoid. Mice were sacrificed when tumor size in control mice reached greater than 1000 mm^3.

[4] = tested on: small bowel tumor burden in APCmin mice; assay: APCmin mouse model: small bowel tumor count after peptide vaccination; type: in vivo; conditions: for effect on small bowel tumor burden (tumor count): APCmin mice, vs CFA/IFA control, 50 ug per peptide s.c.; for peptide efficacy, APCmin Small Bowel (Spontaneous): summary table, Yes/No
Procedure: (§1) Offspring from APCmin were genotyped by PCR for the presence of the Min mutation using primers as follows: Wild-Type: 5′-[…]-3′ (SEQ ID NO: 46), Common 5′-[…]-3′ (SEQ ID NO: 47), Mutant: 5′-[…]-3′ (SEQ ID NO: 48). Both male and female mice testing positive for the Min mutation were included in the study and randomized into groups.
(§2) At 4-6 weeks of age, mice were immunized in CFA/IFA, PBS, and vaccine groups. Each group received subcutaneous injections (100 ul PBS, 50 ul CFA with 50 ul PBS, 50 ug per peptide with 50 ul CFA) once every 7-10 days for a total of three doses and one booster was given 4-5 weeks after the third vaccine. See Table 5 for peptides included in vaccine compositions. CFA was replaced with IFA after the first vaccine. All mice were sacrificed at 14 to 17 weeks of age, the gastrointestinal tracts were collected and tumors counted.

[5] = tested on: colon tumor burden in APCmin mice; assay: APCmin mouse model: colon tumor count after peptide vaccination; type: in vivo; conditions: for effect on colon tumor burden (tumor count): APCmin mice, vs CFA/IFA control, 50 ug per peptide s.c.; for peptide efficacy, APCmin Colon (Spontaneous): summary table, Yes/No
Procedure: as §1, §2

Substance | effect on colon tumor burden (tumor count) [1] | peptide efficacy, Azoxymethane + FVB (Induced) [1] | effect on small bowel tumor burden (tumor count) [2] | effect on tumor volume [3] | peptide efficacy, MC-38 + B6 (Tumor Implant) [3] | effect on small bowel tumor burden (tumor count) [4] | peptide efficacy, APCmin Small Bowel (Spontaneous) [4] | effect on colon tumor burden (tumor count) [5] | peptide efficacy, APCmin Colon (Spontaneous) [5]
COX2: peptide vaccine of COX-2 #32, #33, #34, 50 ug per peptide with CFA/IFA (chain 1 FKGFWNVVNNIPFLRN; chain 2 GLVPGLMMYATIWLREH; chain 3 GEVGFQIINTASIQSLIC; with CFA/IFA adjuvant) | vaccine efficacy; also recorded: significantly inhibits | Yes | does not significantly inhibit | significantly inhibits | Yes | significantly inhibits; also recorded: vaccine efficacy | Yes | does not significantly inhibit; also recorded: lack of COX2 vaccine efficacy | No
IGF1R: peptide vaccine of IGF1R #1, #2, #3, #4, 50 ug per peptide with CFA/IFA (chain 1 VVTGYVKIRHSHALV; chain 2 TQYAVYVKAVTLTMV; chain 3 LVIMLYVFHRKRNNS; chain 4 GMAYLNANKFVHRDL; with CFA/IFA adjuvant) | lack of IGF1R vaccine efficacy; also recorded: does not significantly inhibit | No | – | does not significantly inhibit | No | vaccine efficacy; also recorded: significantly inhibits | Yes | lack of IGF1R vaccine efficacy; also recorded: does not significantly inhibit | No
CDC25B: peptide vaccine of CDC25B #38 (p130-150) and #39 (p405-427), 50 ug per peptide with CFA/IFA (chain 1 QAIQAASRIIRNEQFAIRRFQ; chain 2 VDGKHQDLKYISPETMVALLTGK; with CFA/IFA adjuvant) | vaccine efficacy; also recorded: significantly inhibits | Yes | does not significantly inhibit | significantly inhibits | Yes | significantly inhibits; also recorded: vaccine efficacy | Yes | does not significantly inhibit; also recorded: lack of CDC25B vaccine efficacy | No
